Data reported in paper PMC5152921, “Evolutionary and Functional Diversification of the Vitamin D Receptor-Lithocholic Acid Partnership” (PLoS ONE, 2016).

Legend:
Experiment in all cases: Transient transactivation assay (XREM-Luc, HepG2)
Format in all cases: cell-based
Details in all cases: 100 μM LCA
Bichir VDR = target: T1, Bichir VDR (Polypterus senegalus, UniProt A0A088GJ14)
T1 sequence (A0A088GJ14 1-421): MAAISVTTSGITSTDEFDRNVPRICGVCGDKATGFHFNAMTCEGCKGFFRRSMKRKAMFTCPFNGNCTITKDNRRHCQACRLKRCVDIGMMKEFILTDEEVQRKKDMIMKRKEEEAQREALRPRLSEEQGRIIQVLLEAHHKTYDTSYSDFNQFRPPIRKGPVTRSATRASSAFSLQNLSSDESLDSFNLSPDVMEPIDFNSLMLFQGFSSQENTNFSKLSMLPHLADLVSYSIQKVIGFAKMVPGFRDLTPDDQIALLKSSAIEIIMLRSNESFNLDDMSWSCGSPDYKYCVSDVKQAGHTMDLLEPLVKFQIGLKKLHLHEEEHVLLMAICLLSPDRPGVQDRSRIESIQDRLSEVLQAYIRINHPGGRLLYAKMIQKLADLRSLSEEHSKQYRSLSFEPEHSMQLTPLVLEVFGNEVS
T1 sequence (P19793 1-462 partner): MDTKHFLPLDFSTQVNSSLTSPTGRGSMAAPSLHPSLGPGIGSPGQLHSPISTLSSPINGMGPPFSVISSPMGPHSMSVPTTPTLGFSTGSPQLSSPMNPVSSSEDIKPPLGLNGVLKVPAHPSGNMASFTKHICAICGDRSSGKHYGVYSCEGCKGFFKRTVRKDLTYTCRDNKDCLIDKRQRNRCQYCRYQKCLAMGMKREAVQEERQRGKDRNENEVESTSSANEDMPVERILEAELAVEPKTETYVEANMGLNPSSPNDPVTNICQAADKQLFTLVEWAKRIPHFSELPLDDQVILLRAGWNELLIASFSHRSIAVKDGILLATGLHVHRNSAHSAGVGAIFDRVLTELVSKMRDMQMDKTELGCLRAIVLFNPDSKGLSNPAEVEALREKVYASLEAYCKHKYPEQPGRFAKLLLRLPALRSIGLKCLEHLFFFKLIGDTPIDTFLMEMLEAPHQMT
Method: (§1) HepG2 cells (American Type Culture Collection #HB-8065) were cultured in T75 flasks with vented caps (Corning Life Sciences, Corning, NY) using Minimum Essential Medium (MEM) with phenol red supplemented with 10% fetal bovine serum, 1 mM sodium pyruvate, and 1X MEM non-essential amino acids. Cells were maintained following standard protocols in a 5% CO2 incubator set at 37°C, and split when 80–90% confluent.
(§2) For the transient transactivation assays, HepG2 cells were seeded in 96-well tissue culture plates at a density of 2.5x10^4 cells per well in complete phenol red-free MEM, and allowed to recover overnight. Transfections were performed the following day using Lipofectamine 2000 (Life Technologies, Grand Island, NY) as described previously. For functional comparisons, 89.7 ng/well of full-length pSG5-VDR was co-transfected with 19.2 ng/well human XREM-Luc reporter and 4.5 ng/well of pRL-CMV as an internal luciferase control. Coregulator studies included the addition of 18.3 ng/well of human coregulators (pCDNA-RXRWT, pCDNA-RXRAF2, pSG5-SRC1, pSG5-GRIP1 or pSG5-ACTR) where indicated. […] Controls include 120 nM 1,25D3 as a positive control, and ethanol as a vehicle control. Twenty-four hours post-exposure cells were tested for luciferase activity using the Dual-Glo Luciferase Assay System (Promega Corporation, Madison, WI) according to the manufacturer’s protocols. Luciferase data were first normalized to the pRL-CMV internal luciferase control. […] To calculate the impact of coregulators on VDR transactivation, VDR response in the presence of coregulators was normalized to VDR alone. All experiments were repeated 3 times and conducted as groups of 4 replicate wells. VDR response in the absence of coregulators was analyzed using a 1-way ANOVA followed by Dunnett’s multiple comparisons test. To examine the effects of different coregulators on VDR activation, data were analyzed using a 2-way ANOVA followed by Bonferroni’s multiple comparisons test in GraphPad Prism (GraphPad Inc, San Diego, CA).

Skate VDR = target: T2, Skate VDR (Leucoraja erinacea, UniProt A0A088GDQ7)
T2 sequence (A0A088GDQ7 1-434): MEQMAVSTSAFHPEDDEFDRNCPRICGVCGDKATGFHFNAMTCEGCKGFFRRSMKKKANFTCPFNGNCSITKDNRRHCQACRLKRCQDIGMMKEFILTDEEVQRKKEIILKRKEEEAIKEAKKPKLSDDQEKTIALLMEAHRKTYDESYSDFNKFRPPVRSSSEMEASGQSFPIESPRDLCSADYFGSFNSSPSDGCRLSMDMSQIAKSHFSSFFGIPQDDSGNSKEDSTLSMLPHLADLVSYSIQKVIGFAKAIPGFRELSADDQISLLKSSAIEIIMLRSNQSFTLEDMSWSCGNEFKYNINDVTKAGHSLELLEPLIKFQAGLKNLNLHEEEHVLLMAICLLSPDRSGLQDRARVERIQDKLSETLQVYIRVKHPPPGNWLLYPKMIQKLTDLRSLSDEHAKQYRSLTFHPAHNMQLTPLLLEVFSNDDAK
T2 sequence (P19793 1-462 partner): T1 sequence (P19793 1-462 partner)
Method: as §1, §2

Lamprey VDR = target: T3, Lamprey VDR (Petromyzon marinus, UniProt Q7ZZY9)
T3 sequence (Q7ZZY9 1-406): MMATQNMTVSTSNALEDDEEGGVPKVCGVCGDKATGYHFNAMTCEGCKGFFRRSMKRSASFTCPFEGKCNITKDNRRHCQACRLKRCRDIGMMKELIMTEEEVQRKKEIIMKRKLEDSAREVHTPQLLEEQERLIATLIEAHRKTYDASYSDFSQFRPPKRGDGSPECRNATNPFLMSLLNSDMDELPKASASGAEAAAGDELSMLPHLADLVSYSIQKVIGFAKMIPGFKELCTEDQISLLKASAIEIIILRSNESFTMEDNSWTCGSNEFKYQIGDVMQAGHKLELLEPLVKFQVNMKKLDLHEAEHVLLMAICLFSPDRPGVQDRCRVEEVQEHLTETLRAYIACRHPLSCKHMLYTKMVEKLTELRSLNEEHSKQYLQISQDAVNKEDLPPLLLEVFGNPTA
T3 sequence (P19793 1-462 partner): T1 sequence (P19793 1-462 partner)
Method: as §1, §2

[1] = any SRC/p160 co-activator, presence or absence of RXRWT
[2] = co-transfected human RXRWT, vs VDR alone

C[C@H](CCC(=O)O)[C@H]1CC[C@H]2[C@@H]3CC[C@@H]4C[C@H](O)CC[C@]4(C)[C@H]3CC[C@]12C [LCA, 5β-cholanic acid-3α-ol]
Effect of SRC/p160 co-activators on VDR transactivation (Bichir VDR; [1]): No change in transactivation | Effect of exogenous human RXRWT on VDR transactivation (Bichir VDR; [2]): no effect | Effect of exogenous human RXRWT on VDR transactivation (Skate VDR; [2]): significantly enhanced transactivation | Effect of RXRWT+SRC1 or RXRWT+GRIP1 on VDR transactivation (Skate VDR; not significantly different from RXRWT individually): Enhanced VDR transactivation was also observed | Effect of SRC/p160 co-activators on VDR transactivation (Lamprey VDR; [1]): No change in transactivation | Effect of exogenous human RXRWT on VDR transactivation (Lamprey VDR; [2]): no effect
